How the values were obtained:
[1] = solubility of the crystal form; type: physicochemical; details: compared to prior known forms of the API
[2] = bioavailability of the crystal form; type: in vivo; details: compared to prior known forms of the API
[3] = background statement; cited from earlier work

Row | SMILES | solubility [1] | bioavailability [2] | bioavailability in humans [3]
1 | CC(=O)NC[C@H]1CN(c2ccc(N3Cc4cn(C)nc4C3)c(F)c2)C(=O)O1.O=C(O)CC(=O)O [Form α crystal] | improved | improved | –
2 | CC(=O)NC[C@H]1CN(c2ccc(N3Cc4cn(C)nc4C3)c(F)c2)C(=O)O1 [N-[[(5S)-3-[4-(2,6-dihydro-2-methylpyrrolo[3,4-c]pyrazol-5(4H)-yl)-3-fluorophenyl]-2-oxo-5-oxazolidinyl]methyl]acetamide] | – | – | poor
